≈ marks a conversion by molar mass, not a printed value. Like-named read-outs stand apart in the source and are kept apart here.
Columns and labels:
Assay type in all cases: cell-based
Coxsackie virus B6 = assay: Coxsackie virus activity assay (CPE in Vero cells); details: Vero
HCV = assay: Anti-hepatitis C virus (HCV) activity assay (HCV RNA in Huh7.5 cells); details: for EC50: Hepatitis C virus, Huh7.5, 72 h, read-out: HCV EC50; for anti-HCV viral activity: statement in words
Procedure: Inoculate Huh7.5 cells into 96-well plates to a density of 3×10^4 cells/cm^2, culture for 24h, infect the cells with 45 IU/cell HCV supernatant, meanwhile, add drug solutions or solvent control for treatment.

PC12 cells [1] = assay: Neuroprotective activity assay, rotenone injury to PC12 cells (MTT); details: for viability at 10 µM: Rattus norvegicus, PC-12, 48 h, read-out: rotenone (surviving PC12 cells, MTT 570 nm); for protective effect on rotenone injury to PC12 cells: statement in words
In short: (§1)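 PC12 cells on poly-lysine plated 24 h, then injured 48 h by serum-free DMEM or 4 μM rotenone with 10 μM test compound present during injury. Viability read by MTT (4 h), absorbance 570 nm.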

PC12 cells [2] = assay: Neuroprotective activity assay, serum-deprived injury to PC12 cells (MTT); details: for viability at 10 µM: Rattus norvegicus, PC-12, 48 h, read-out: serum-deprived (surviving PC12 cells, MTT 570 nm); for protective effect on serum-deprived injury to PC12 cells: statement in words
In short: as §1

HIV-1 III B virus = assay: Anti-HIV activity assay (P24 antigen in MT-4 cells); details: for IC50: Human immunodeficiency virus 1, MT4, 96 h, read-out: HIV IC50; for anti-HIV viral activity: statement in words
[3] = test system: Influenza A virus (hanfang359/95); assay: Determination of anti-influenza virus activity (CPE in MDCK cells); details: for IC50: Influenza A virus, MDCK, 36 h; for anti-influenza virus activities compared with the lead compound cajanine: statement in words
[4] = read-out: COX-B6 IC50, Vero cells, about 100TCID50, CPE, Reed-Muench
[5] = Huh7.5 cells, 72 h, HCV RNA by RT-PCR, Reed-Muench
[6] = 10 μM test compound, 4 μM rotenone, 48 h, Control 100.0 ± 8.9, Model 73.2 ± 7.8
[7] = 10 μM test compound, 48 h, Control 100.0 ± 9.2, Model 69.3 ± 4.1
[8] = MT-4 cells, HIV-1 III B 100TCID50, 96 h, P24 antigen

| Structure (SMILES) | IC50 (Coxsackie virus B6; [4]) | EC50 (HCV; [5]) | viability at 10 µM (PC12 cells [1]; [6]) | viability at 10 µM (PC12 cells [2]; [7]) | IC50 (HIV-1 III B virus; [8]) | IC50 [3] | anti-influenza virus activities compared with the lead compound cajanine [3] | anti-HCV viral activity (HCV) | anti-HIV viral activity (HIV-1 III B virus) | IC50 (Coxsackie virus B6; read-out: COX-B6 IC50) | EC50 (HCV) | viability at 10 µM (PC12 cells [1]) | viability at 10 µM (PC12 cells [2]) | IC50 (HIV-1 III B virus) | protective effect on rotenone injury to PC12 cells (PC12 cells [1]) | protective effect on serum-deprived injury to PC12 cells (PC12 cells [2]) |
| --- | --- | --- | --- | --- | --- | --- | --- | --- | --- | --- | --- | --- | --- | --- | --- | --- |
| COc1cc(/C=C/c2ccccc2)c(C(=O)Nc2ccc(Cl)cc2)c(O)c1CC=C(C)C [Compound 9h, N-p-chlorophenyl2-hydroxy-3-isopentenyl-4-methoxy-6-[(E)-styryl]benzamide] | 2.98 µg/mL (≈ 6.65 µM) | 1.33 µg/mL (≈ 2.97 µM) | 79.8 ± 2.1% | 84.5 ± 5.1% | 3.38 µg/mL (≈ 7.55 µM) | 0.47 µg/mL (≈ 1.05 µM) | significantly stronger than the lead compound cajanine |  |  |  |  |  |  |  |  |  |
| COc1cc(/C=C/c2ccccc2)cc(O)c1CC=C(C)C [Compound 10, Cajanine A] | 0.69 µg/mL (≈ 2.34 µM) | 0.56 µg/mL (≈ 1.9 µM) | 69.9 ± 5.8% | 34.7 ± 9.8% | 0.21 µg/mL (≈ 0.713 µM) | 0.27 µg/mL (≈ 0.917 µM) | significantly stronger than the lead compound cajanine | stronger anti-HIV, HCV viral activities | stronger anti-HIV, HCV viral activities |  |  |  |  |  |  |  |
| COc1cc(/C=C/c2ccc(F)cc2)cc(O)c1CC=C(C)C [Compound 10a, 2-isopentenyl-3-methoxy-5-[(E)-(4′-fluorostyryl)]phenol] |  |  |  |  |  | > 0.69 µg/mL | significantly stronger than the lead compound cajanine |  |  | 6.32 µg/mL (≈ 20.2 µM) | 1.6 µg/mL (≈ 5.12 µM) | 79.8 ± 5.6% | 78.2 ± 4.1% | 2.02 µg/mL (≈ 6.47 µM) |  |  |
| COc1cc(/C=C/c2ccccc2Cl)cc(O)c1CC=C(C)C [Compound 10b] |  |  |  |  |  | > 0.23 µg/mL |  | stronger anti-HIV, HCV viral activities | stronger anti-HIV, HCV viral activities | 6.38 µg/mL (≈ 19.4 µM) | 0.59 µg/mL (≈ 1.79 µM) | 74.6 ± 6.3% | 74.8 ± 5.2% | 0.3 µg/mL (≈ 0.912 µM) |  |  |
| COc1ccc(/C=C/c2cc(O)c(CC=C(C)C)c(OC)c2)cc1 [Compound 10c, 2-isopentenyl-3-methoxy-5-[(E)-4′-methoxystyryl]phenol] | 2.35 µg/mL (≈ 7.24 µM) | 7.17 µg/mL (≈ 22.1 µM) | 80.3 ± 6.2% | 81.6 ± 2.6% | 0.35 µg/mL (≈ 1.08 µM) | > 6.17 µg/mL |  |  |  |  |  |  |  |  | the strongest activities | the strongest activities |
| COc1cccc(OC)c1/C=C/c1cc(O)c(CC=C(C)C)c(OC)c1 [Compound 10d, 2-isopentenyl-3-methoxy-5-[(E)-2′,6′-dimethoxy-styryl]phenol] | > 2.05 µg/mL | 2.37 µg/mL (≈ 6.69 µM) | 78.9 ± 6.1% | 79.3 ± 5.4% | 1.05 µg/mL (≈ 2.96 µM) | > 6.17 µg/mL |  |  |  |  |  |  |  |  | the strongest activities | the strongest activities |
| COc1cc(/C=C/c2ccccc2C)cc(O)c1CC=C(C)C [Compound 10e, 2-isopentenyl-3-methoxy-5-[(E)-2′-methylstyryl]phenol] | 2.35 µg/mL (≈ 7.62 µM) | 1.9 µg/mL (≈ 6.16 µM) | 70.2 ± 8.1% | 65.3 ± 2.3% | 1.33 µg/mL (≈ 4.31 µM) | 1.92 µg/mL (≈ 6.23 µM) | significantly stronger than the lead compound cajanine |  |  |  |  |  |  |  |  |  |
| COc1cc(/C=C/c2cccc(C)c2)cc(O)c1CC=C(C)C [Compound 10f, 2-isopentenyl-3-methoxy-5-[(E)-3′-methylstyryl]phenol] | 1.26 µg/mL (≈ 4.09 µM) | 0.87 µg/mL (≈ 2.82 µM) | 76.5 ± 8% | 74.5 ± 6.5% | 0.46 µg/mL (≈ 1.49 µM) | 0.89 µg/mL (≈ 2.89 µM) | significantly stronger than the lead compound cajanine |  |  |  |  |  |  |  |  |  |
| COc1cc(/C=C/c2ccc(C)cc2)cc(O)c1CC=C(C)C [Compound 10g, 2-isopentenyl-3-methoxy-5-[(E)-4′-methylstyryl]phenol] | 1.18 µg/mL (≈ 3.83 µM) | 3.09 µg/mL (≈ 10 µM) | 80.3 ± 3.2% | 81.3 ± 2.5% |  | > 6.19 µg/mL |  |  |  |  |  |  |  | 1.18 µg/mL (≈ 3.83 µM) |  |  |
| CC/C=C/c1cc(O)c(CC=C(C)C)c(OC)c1 [Compound 10h, 2-isopentenyl-3-methoxy-5-[(E)-buten-1-yl]phenol] | > 2.06 µg/mL | 0.74 µg/mL (≈ 3 µM) | 67.8 ± 8.5% | 65.8 ± 9.2% | 0.96 µg/mL (≈ 3.9 µM) | 0.74 µg/mL (≈ 3 µM) |  |  |  |  |  |  |  |  |  |  |
| COc1cc(/C=C/c2cccs2)cc(O)c1CC=C(C)C [Compound 10j] | 1.56 µg/mL (≈ 5.19 µM) | 0.87 µg/mL (≈ 2.9 µM) | 84.6 ± 5.2% | 82.3 ± 2.5% | 0.66 µg/mL (≈ 2.2 µM) | > 18.5 µg/mL |  | stronger anti-HIV, HCV viral activities | stronger anti-HIV, HCV viral activities |  |  |  |  |  | the strongest activities | the strongest activities |
| COc1cc(/C=C/Cc2ccccc2)cc(O)c1CC=C(C)C [Compound 10k, 2-isopentenyl-3′-methoxy-5-[(E)-3′-phenylpropen-1′-yl]phenol] | > 2.06 µg/mL | 0.99 µg/mL (≈ 3.21 µM) | 84.6 ± 2.4% | 85.6 ± 3.2% | 1.06 µg/mL (≈ 3.44 µM) | 0.89 µg/mL (≈ 2.89 µM) | significantly stronger than the lead compound cajanine |  |  |  |  |  |  |  | the strongest activities | the strongest activities |
| COc1cc(/C=C/CCc2ccccc2)cc(O)c1CC=C(C)C [Compound 10l, 2-isopentenyl-3-methoxy-5-[(E)-4′-phenylbuten-1′-yl]phenol] | > 18.2 µg/mL | 0.95 µg/mL (≈ 2.95 µM) | 84.6 ± 6.2% | 81.3 ± 2.9% | 2.2 µg/mL (≈ 6.82 µM) | 0.65 µg/mL (≈ 2.02 µM) | significantly stronger than the lead compound cajanine | stronger anti-HIV, HCV viral activities | stronger anti-HIV, HCV viral activities |  |  |  |  |  | the strongest activities | the strongest activities |
| COc1cc(/C=C/C=C/c2ccccc2)cc(O)c1CC=C(C)C [Compound 10m, 2-isopentenyl-3-methoxy-5-[(1′E,3′E)-phenylbutadiene-1′,3′-yl]phenol] | 6.12 µg/mL (≈ 19.1 µM) | 1.75 µg/mL (≈ 5.46 µM) | 85.3 ± 7.1% | 89.3 ± 6.4% | 2.33 µg/mL (≈ 7.27 µM) | 2.35 µg/mL (≈ 7.33 µM) | significantly stronger than the lead compound cajanine | stronger anti-HIV, HCV viral activities | stronger anti-HIV, HCV viral activities |  |  |  |  |  | the strongest activities | the strongest activities |
| COc1cc(/C=C/c2ccccc2)cc(O)c1C/C=C(\C)CCC=C(C)C [Compound 10o] | 0.96 µg/mL (≈ 2.65 µM) | 1.32 µg/mL (≈ 3.64 µM) | 87.6 ± 5.4% | 86.3 ± 3.8% | 0.96 µg/mL (≈ 2.65 µM) | > 2.06 µg/mL |  | stronger anti-HIV, HCV viral activities | stronger anti-HIV, HCV viral activities |  |  |  |  |  | the strongest activities | the strongest activities |
| COc1cc(/C=C/C2CCCCC2)cc(O)c1CC=C(C)C [Compound 10p, 2-isopentenyl-3-methoxy-5-[(E)-2-cyclohexylvinyl]phenol] | > 6.19 µg/mL | 2.95 µg/mL (≈ 9.82 µM) | 86.7 ± 9.1% | 84.6 ± 2.7% | 7.19 µg/mL (≈ 23.9 µM) | 2.65 µg/mL (≈ 8.82 µM) |  |  |  |  |  |  |  |  | the strongest activities | the strongest activities |
| COc1cc(/C=C/c2ccc(O)cc2)cc(O)c1CC=C(C)C [Compound 10q, 2-isopentenyl-3-methoxy-5-[(E)-4′-hydroxystyryl]-phenol] | 2.35 µg/mL (≈ 7.57 µM) | 0.89 µg/mL (≈ 2.87 µM) | 76.8 ± 5.8% | 79.5 ± 1.4% | 2.38 µg/mL (≈ 7.67 µM) | 1.39 µg/mL (≈ 4.48 µM) | significantly stronger than the lead compound cajanine | stronger anti-HIV, HCV viral activities | stronger anti-HIV, HCV viral activities |  |  |  |  |  |  |  |
| COc1cc(/C=C/c2ccncc2)cc(O)c1CC=C(C)C [Compound 10r, 2-isopentenyl-3-methoxy-5-[(E)-(pyrid-4-yl)ethenyl]phenol] | 3.23 µg/mL (≈ 10.9 µM) | 1.71 µg/mL (≈ 5.79 µM) | 58.4 ± 6.5% | 68.5 ± 2.4% | 1.73 µg/mL (≈ 5.86 µM) | > 0.69 µg/mL |  |  |  |  |  |  |  |  |  |  |
| COc1c(Cl)c(/C=C/c2ccccc2)cc(O)c1CC=C(C)C [Compound 10s, 2-isopentenyl-3-methoxy-4-chloro-5-[(E)-styryl]phenol] | 4.35 µg/mL (≈ 13.2 µM) | 5.17 µg/mL (≈ 15.7 µM) | 79.8 ± 3.5% | 78.5 ± 6.3% | 2.75 µg/mL (≈ 8.36 µM) | > 6.17 µg/mL |  |  |  |  |  |  |  |  |  |  |
